Experimental data as given in patent US7998460B2, “Prevention of deficits in neurogenesis with anti-inflammatory agents” (The Board of Trustees of the Leland Stanford Junior …, priority 2003, dated 2011).

How the values were obtained:
[1] = system: adult rats; assay: Barnes maze after LPS; assay type: in vivo, rat
Source text: LPS-induced inflammatory response impairs performance in the Barnes maze. It has been reported previously that irradiation and LPS-induced inflammation impair performance in hippocampus-dependent spatial tasks. The present studies confirm that LPS treatment impaired recall of a goal position learned prior to LPS treatment. The Barnes maze is a 6-foot diameter bright white platform with 8 escape boxes under holes in the rim of the platform. All escape holes are blocked except one and the rat is initially placed in the goal box for familiarization. The rat is then placed in the center of the maze and is allowed to find its way back to the goal box to escape the aversive brightly lit platform. Learning is seen as a decrease in the distance traveled to reach the goal box with consecutive trials on a given day and in repeat sessions on sequential days. One measure of recall is to determine distance traveled when the animal is tested on the same task after a time delay or after experimental treatments.
To determine if there were differences in recall following LPS treatment, animals were trained on the Barnes maze for 5 consecutive days prior to LPS treatment. LPS was given on day 0 and animals tested for recall on day 7. Low-dose intraperitoneal LPS treatment makes animals feel mildly ill and they will reduce their water and food intake for a period of one or two days. There is a temporary weight loss that is fully recovered by day 7.
Animals were weighed daily and after 7 days tested for memory retention on the Barnes maze. On days 8-11, animals were re-trained for their ability to learn the position of a new goal box in the Barnes maze. Animals were then tested on day 14 for the ability to remember the position of the second goal box. LPS caused a ˜14% increase in the distance traveled to the goal box learned prior to LPS treatment, indicating impaired spatial memory. LPS caused a significant increase (˜28%) in the distance traveled during day 8 trials used to learn the position of the new goal box (indicating impaired spatial learning) but all animals eventually learned the position of the goal box by day 11 (no difference in distance traveled between LPS and control groups).

[2] = Sickness behavior and weight loss after LPS in mice; assay type: in vivo, mouse; conditions: for effect of NSAID on LPS-induced sickness behavior and weight loss: oral NSAID course
Source text: LPS-induced transient illness is associated with mild but persistent memory impairment. Hippocampal neurogenesis, a phenomenon that persists throughout life in men and mice alike, has been linked to learning and memory by several groups. Manipulations that chronically deplete hippocampal neurogenesis produce concomitant impairments in cognition, particularly hippocampus-dependent memory. […] To determine whether LPS-induced illness affects learning and/or memory during either the acute recovery phase or in asymptomatic mice, a single 0 or 5 mg/kg injection of LPS was administered with daily subcutaneous saline injections over 4 days to maintain hydration and their behavior examined in locomotor chambers and/or the Morris water maze task either in the week following treatment or beginning 4 weeks after treatment when the decrease in net neurogenesis is most apparent.
Subjects. All mice used as subjects in this study were treated in accordance with the policies set forth by the Stanford Animal Care and Use Committee and NIH regarding the ethical use of animals for experimentation. CB57BI/6 mice (7 wks old upon arrival from -Taconic) were housed in groups of 4-5 in autoclaved shoebox cages under standard conditions and were given free access to autoclaved Prolab Mouse 3000 chow (PMI Nutrition International, St. Louis, Mo.) and autoclaved tap water. […] Louis, Mo.) to induce transient illness (Day 0) and daily subcutaneous (s.c.) isotonic saline (0.5 ml) injections (Days 0-3) to prevent illness-induced dehydration. The cell synthesis marker bromodeoxyuridine (BrdU; Sigma Aldrich, St. Louis, Mo.) was injected i.p. (50 mg/kg at a concentration of 10 mg/ml in freshly prepared isotonic saline) once per day for 6 days to label dividing cells, beginning Day 0 (2 h after LPS). The mice were anesthetized with ketamine/xylazine and killed at Days 7 or 28 (to assess hippocampal neurogenesis during illness and just before behavioral testing, respectively) or Day 80 (to measure hippocampal neurogenesis following behavioural testing) by perfusion with 4% paraformaldehyde. Brains were post-fixed overnight in perfusate, microtome sectioned at 40 μm through the hippocampus and stored in tissue cryoprotectant solution at −20° C. until processed immunohistochemically.

[3] = Mortality with indomethacin in mice; assay type: in vivo, mouse; conditions: higher dose (5 mg/kg BID)
Source text: The propensity of NSAIDs to induce ulceration and bleeding often outweigh the anti-inflammatory benefits. […] NSAIDs that more selectively target Cox-2, such as roficoxib and celecoxib, are well tolerated and have been widely used as alternatives to broad spectrum NSAIDs for controlling inflammation. In addition, the selective agonism of PPAR-γ is an effective anti-inflammatory strategy, e.g., through administration of thiazolidinediones such as rosiglitazone or pioglitizone. […] Mice were started on a 16 day preventative course of oral NSAID and then challenged with a single IP injection of LPS (5 mg/kg) and then BrdU (50 mg/kg) over 6 days beginning 2 h after LPS. The mice were either perfused 28 days after LPS injection, or trained and tested in the Morris water maze.
NSAID treatment. One half of the saline- and LPS-treated mice were fed non-steroidal anti-inflammatory drug (NSAID), in low fat strawberry milk, twice per day for two weeks following LPS injection (Days 0-13). The mice were initially introduced to low fat strawberry milk (Berkeley Farms, Calif.; 200 μl per animal) in their home cages, four days before LPS was injected (Days […]) and were then placed in a PVC tube (10-cm diameter×18-cm height), twice per day (12 h apart) beginning two days before LPS was injected (Days −2 and −1) until they consumed a 100 μl volume of low fat strawberry milk. […]

[4] = Sickness behavior after LPS in rats; assay type: in vivo, rat; conditions: LPS 1 mg/Kg i.p. one time
Procedure: LPS exposure. Bacterial lipopolysaccharide (LPS, Sigma, St Louis, Mo.) was administered in sterile saline by intraperitoneal injection at a dose of 1 mg/Kg one time. This caused mild sickness behavior (decreased grooming, decreased locomotor activity, increased piloerection) for approximately 2 days, resolving by the 3rd day. The dose of LPS chosen causes mild sickness behavior in rats that resolves within 1-2 days; the dose of LPS used to induce endotoxic shock is 10-fold higher than that used in the present study.

COc1ccc2c(c1)c(CC(=O)O)c(C)n2C(=O)c1ccc(Cl)cc1 [indomethacin]
learning and memory, drug alone by intraperitoneal injection ([1]; indomethacin 2.5 mg/kg twice daily i.p., no LPS): perform more poorly in all tasks at all time points | learning and memory, oral drug alone ([1]; indomethacin 2.5 mg/kg twice daily oral, no LPS): no measurable effects | effect on LPS effects on memory retention and learning of second goal box ([1]; oral indomethacin 2.5 mg/kg twice daily with LPS): completely reverse | effect of NSAID on LPS-induced sickness behavior and weight loss ([2]; LPS 5 mg/kg): not significantly attenuated | effect of NSAID on LPS-induced sickness behavior and weight loss ([2]; LPS 5 mg/kg, listed as Indomethacin): not significantly affected | mortality [3]: 100%

lipopolysaccharide [LPS]
increase in distance traveled to the goal box learned prior to LPS treatment ([1]; day 7 after LPS, memory retention): ~14% | increase in distance traveled during day 8 trials to learn the new goal box ([1]; day 8 after LPS, spatial learning): ~28% | days to recovery of body weight ([2]; LPS 5 mg/kg): 4 days | days to recovery of body weight ([2]; LPS 7.5 mg/kg): 5 days | days to recovery of body weight ([2]; LPS 10 mg/kg): 6 days | onset of sickness behavior (hunching, piloerection, sweaty fur) ([2]; after LPS injection): 1 to 2 h | day by which weight loss is fully restored ([2]; lowest LPS dose tested): ≤ 6 days | loss of body weight ([2]; lowest LPS dose tested (titration 5-10 mg/kg)): roughly 20% | loss of body mass ([2]; within 2 d following LPS injection): approximately 10% | duration of mild sickness behavior [4]: approximately 2 days
